Molecular target: T1, Interleukin-1 receptor-associated kinase 4 (Homo sapiens, UniProt Q9NWZ3)
T1 sequence (Q9NWZ3 whole entry): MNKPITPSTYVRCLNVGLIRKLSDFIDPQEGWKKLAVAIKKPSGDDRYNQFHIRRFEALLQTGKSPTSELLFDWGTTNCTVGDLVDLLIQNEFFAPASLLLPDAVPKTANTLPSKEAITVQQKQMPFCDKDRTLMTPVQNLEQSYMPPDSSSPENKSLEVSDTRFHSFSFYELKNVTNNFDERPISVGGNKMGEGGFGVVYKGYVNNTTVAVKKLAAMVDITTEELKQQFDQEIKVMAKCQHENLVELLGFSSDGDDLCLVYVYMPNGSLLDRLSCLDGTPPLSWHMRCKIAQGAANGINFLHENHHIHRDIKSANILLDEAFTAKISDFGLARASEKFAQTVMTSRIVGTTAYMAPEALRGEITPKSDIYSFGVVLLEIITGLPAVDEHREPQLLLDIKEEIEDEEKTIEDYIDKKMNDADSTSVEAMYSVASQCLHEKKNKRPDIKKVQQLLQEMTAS
Experiment: Inhibition Assay: The assays were performed in U-bottom 384-well plates. The final assay volume was 30 μL prepared from 15 μL additions of enzyme and substrates (fluoresceinated peptide and ATP) and test compounds in assay buffer (20 mM HEPES pH 7.2, 10 mM MgCl2, 0.015% Brij 35 and 4 mM DTT). The reaction was initiated by the combination of IRAK4 with substrates and test compounds. The reaction mixture was incubated at room temperature for 60 min. and terminated by adding 45 μL of 35 mM EDTA to each sample. The reaction mixture was analyzed on the Caliper LABCHIP® 3000 (Caliper, Hopkinton, Mass.) by electrophoretic separation of the fluorescent substrate and phosphorylated product. Inhibition data were calculated by comparison to no enzyme control reactions for 100% inhibition and vehicle-only reactions for 0% inhibition. The final concentrations of reagents in the assays are ATP, 500 μM; FL-IPTSPITTTYFFFKKK peptide 1.5 μM; IRAK4, 0.6 nM; and DMSO, 1.6%.

IC50: 595 nM
SMILES: CC[C@H]1[C@@H](COc2csc3cc(C(N)=O)c(OC)nc23)NC(=O)C1(C)C
